Experimental data as given in patent US10519162B2, “6,7-dihydropyrazolo[1,5-α]pyrazin-4(5H)-one compounds and their use as negative allosteric modulators of mGluR2 receptors” (Janssen Pharmaceutica NV, priority 2014, dated 2019).

Experiments:
human mGlu2 receptor = biological target: T1, human mGlu2 receptor (Homo sapiens, UniProt Q14416); assay: [35S]GTPγS binding assay (mGluR2 negative allosteric modulation, glutamate ~EC80 60 μM); assay type: biochemical; details: for Emax: read-out: GTPγS-hmGluR2 anGT Emax; for IC50: membranes from CHO cells transfected with human mGlu2 receptor, glutamate ~EC80 (60 μM), pIC50 = −log IC50 (M), read-out: GTPγS-hmGluR2 anGT pIC50 (converted)
T1 construct: expressed in transfected cells; host or cells: CHO cells
T1 sequence (Q14416 19-872): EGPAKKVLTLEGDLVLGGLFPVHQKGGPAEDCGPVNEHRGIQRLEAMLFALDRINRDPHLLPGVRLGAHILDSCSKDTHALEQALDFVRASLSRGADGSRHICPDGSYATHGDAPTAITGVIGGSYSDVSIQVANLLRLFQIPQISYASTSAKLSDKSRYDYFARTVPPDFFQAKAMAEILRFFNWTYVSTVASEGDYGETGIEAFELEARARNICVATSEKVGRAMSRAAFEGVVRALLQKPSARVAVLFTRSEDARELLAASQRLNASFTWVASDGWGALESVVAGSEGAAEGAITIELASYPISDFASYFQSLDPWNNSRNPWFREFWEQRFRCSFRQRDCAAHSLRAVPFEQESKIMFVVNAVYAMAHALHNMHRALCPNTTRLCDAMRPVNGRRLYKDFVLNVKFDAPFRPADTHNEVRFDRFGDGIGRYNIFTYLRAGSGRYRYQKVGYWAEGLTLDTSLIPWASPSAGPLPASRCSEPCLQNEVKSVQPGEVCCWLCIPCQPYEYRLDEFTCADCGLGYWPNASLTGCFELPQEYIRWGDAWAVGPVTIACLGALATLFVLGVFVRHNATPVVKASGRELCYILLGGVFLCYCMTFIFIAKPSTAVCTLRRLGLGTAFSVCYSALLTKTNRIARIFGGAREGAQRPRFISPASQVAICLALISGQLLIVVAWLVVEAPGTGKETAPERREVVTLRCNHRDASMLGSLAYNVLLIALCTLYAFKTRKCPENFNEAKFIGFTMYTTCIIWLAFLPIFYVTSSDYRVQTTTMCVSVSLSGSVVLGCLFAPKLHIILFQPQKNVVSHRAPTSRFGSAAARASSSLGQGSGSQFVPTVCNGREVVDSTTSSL
Experimental: 1) [^35S]GTPγS Binding Assay
[^35S]GTPγS Binding Assay
Total reaction volume was 200 μl. […] Membrane-bound radioactivity was counted in a Topcount.

[1] = maximal % inhibition relative to the control glutamate response (EC80 glutamate)

SMILES	Emax (human mGlu2 receptor; [1]) [%]	IC50 (human mGlu2 receptor) [M]	melting point [°C]	GTPγS-hmGluR2 anGT Emax (human mGlu2 receptor; [1]) [%]
C[C@H]1CN(c2ccc(C(F)(F)F)cn2)C(=O)c2c(NC(=O)c3ccc(N)nc3)cnn21 [Co. No. 61]	103	2.45e-08	223.46	–
COc1nc(N2C[C@H](C)n3ncc(NC(=O)c4ccccc4)c3C2=O)ccc1C(F)(F)F [Co. No. 70]	108	3.8e-08	201.06	–
C[C@H]1CN(c2ccc(C(F)(F)F)cc2)C(=O)c2c(NC(=O)CC3CC3)cnn21 [Co. No. 73]	98	4.79e-08	152.2	–
COc1ccccc1C(=O)Nc1cnn2c1C(=O)N(c1ccc(C(F)(F)F)c(OC)n1)C[C@@H]2C [Co. No. 75]	103	5.37e-08	231.11	–
COc1nc(N2C[C@H](C)n3ncc(NC(=O)c4ccccc4)c3C2=O)ccc1Cl [Co. No. 76, N-[(7S)-5-(5-Chloro-6-methoxy-2-pyridyl)-7-methyl-4-oxo-6,7-dihydropyrazolo[1,5-a]pyrazin-3-yl]benzamide]	106	5.89e-08	188.77	–
COc1ccc(C(=O)Nc2cnn3c2C(=O)N(c2ccc(C(F)(F)F)c(OC)n2)C[C@@H]3C)cc1 [Co. No. 77]	103	7.76e-08	194.9	–
COCc1ccccc1C(=O)Nc1cnn2c1C(=O)N(c1ccc(C(F)(F)F)cc1)C[C@@H]2C [Co. No. 78]	105	5.62e-08	88.18	–
C[C@H]1CN(c2ccc(C(F)(F)F)cc2)C(=O)c2c(NC(=O)c3ccc(C(N)=O)cn3)cnn21 [Co. No. 82, N2-[(7S)-7-Methyl-4-oxo-5-[4-(trifluoromethyl)phenyl]-6,7-dihydropyrazolo[1,5-a]pyrazin-3-yl]pyridine-2,5-dicarboxamide]	104	1.12e-07	278.58	–
C[C@H]1CN(c2ccc(C(F)(F)F)cc2)C(=O)c2c(NC(=O)c3ccc(C#N)cn3)cnn21 [Co. No. 85]	106	1.66e-07	291.58	–
C[C@H]1CN(c2ccc(C(F)(F)F)cc2)C(=O)c2c(NC(=O)Cc3ccccc3)cnn21 [Co. No. 87]	103	2e-07	135.05	–
C[C@H]1CN(c2ccccc2)C(=O)c2c(NC(=O)c3ccnc(N)c3)cnn21 [Co. No. 97]	111	3.16e-07	153.01	–
COc1cc(N2C[C@H](C)n3ncc(NC(=O)c4cc(C)nc(C)c4)c3C2=O)ccc1C(F)(F)F [Co. No. 125]	104	4.07e-09	226.99	–
Cc1cc(C(=O)Nc2cnn3c2C(=O)N(c2ccc(C(F)(F)F)c(F)c2)C[C@@H]3C)cc(C)n1 [Co. No. 129]	108	5.62e-09	148.36	–
Cc1cc(C(=O)Nc2cnn3c2C(=O)N(c2ccc(C(F)(F)F)c(F)c2)C[C@@H]3C)ccn1 [Co. No. 130]	107	7.41e-09	134.44	–
Cc1cncc(C(=O)Nc2cnn3c2C(=O)N(c2ccc(C(F)(F)F)c(Cl)c2)C[C@@H]3C)c1C [Co. No. 133]	109	3.31e-09	172.8	–
Cc1c(F)cncc1C(=O)Nc1cnn2c1C(=O)N(c1ccc(C(F)(F)F)c(Cl)c1)C[C@@H]2C [Co. No. 135]	108	2.29e-09	97.9	–
Cc1c(F)cncc1C(=O)Nc1cnn2c1C(=O)N(c1ccc(C(F)(F)F)cc1)C[C@@H]2C [Co. No. 136]	106	2.45e-08	89.55	–
COc1cncc(C(=O)Nc2cnn3c2C(=O)N(c2ccc(Cl)cc2)C[C@@H]3C)c1 [Co. No. 137]	106	1.74e-08	153.4	–
COCc1cncc(C(=O)Nc2cnn3c2C(=O)N(c2ccc(C(F)(F)F)cc2)C[C@@H]3C)c1 [Co. No. 138]	106	2.95e-08	149.93	–
COCc1cncc(C(=O)Nc2cnn3c2C(=O)N(c2ccc(C(F)(F)F)c(Cl)c2)C[C@@H]3C)c1 [Co. No. 139]	108	3.02e-09	170.75	–
Cc1cc(C(=O)Nc2cnn3c2C(=O)N(c2ccc(C(F)(F)F)c(Cl)c2)C[C@@H]3C)cc(Cl)n1 [Co. No. 142]	109	2.45e-09	124.01	–
C[C@H]1CN(c2ccc(C(F)(F)F)cc2)C(=O)c2c(NC(=O)c3cccc(O)c3)cnn21 [Co. No. 144]	115	2.04e-09	240.46	–
Cc1nccc(C(=O)Nc2cnn3c2C(=O)N(c2ccc(C(F)(F)F)cc2)C[C@@H]3C)c1C [Co. No. 156]	–	2.4e-08	182.69	113
Cc1cc(C(=O)Nc2cnn3c2C(=O)N(c2ccc(C(F)(F)F)c(Cl)c2)C[C@@H]3C)c(C)cn1 [Co. No. 158]	112	4.07e-09	130.79	–
CC(=O)Nc1ccc(C(=O)Nc2cnn3c2C(=O)N(c2ccc(C(F)(F)F)cc2)C[C@@H]3C)cn1 [Co. No. 159, 6-acetamido-N-[(7S)-7-methyl-4-oxo-5-[4-(trifluoromethyl)phenyl]-6,7-dihydropyrazolo[1,5-a]pyrazin-3-yl]pyridine-3-carboxamide]	106	6.03e-09	265	–

Other lines, results leading:

Emax (human mGlu2 receptor; [1]) [%]	IC50 (human mGlu2 receptor) [M]	melting point [°C]	GTPγS-hmGluR2 anGT Emax (human mGlu2 receptor; [1]) [%]	SMILES
109	2.63e-08	204.97	–	C[C@H]1CN(c2ccc(C(F)(F)F)cc2)C(=O)c2c(NC(=O)c3ncco3)cnn21 [Co. No. 63, N-[(7S)-7-Methyl-4-oxo-5-[4-(trifluoromethyl)phenyl]-6,7-dihydropyrazolo[1,5-a]pyrazin-3-yl]oxazole-2-carboxamide]
104	2.75e-08	120.37	–	Cc1ncccc1C(=O)Nc1cnn2c1C(=O)N(c1ccc(C(F)(F)F)cc1)C[C@@H]2C [Co. No. 66]
107	2.82e-08	289.4	–	C[C@H]1CN(c2ccc(C(F)(F)F)cc2)C(=O)c2c(NC(=O)c3ccc(N)cn3)cnn21 [Co. No. 68, 5-Amino-N-[(7S)-7-methyl-4-oxo-5-[4-(trifluoromethyl)phenyl]-6,7-dihydropyrazolo[1,5-a]pyrazin-3-yl]pyridine-2-carboxamide]
97	3.8e-08	243.14	–	Cc1cc(C(=O)Nc2cnn3c2C(=O)N(c2ccc(C(F)(F)F)cc2)C[C@@H]3C)on1 [Co. No. 71]
99	4.27e-08	209.27	–	Cc1cc(C(=O)Nc2cnn3c2C(=O)N(c2ccc(C(F)(F)F)cc2)C[C@@H]3C)no1 [Co. No. 72]
113	3.39e-08	283.48	–	C[C@H]1CN(c2ccc(C(F)(F)F)cc2)C(=O)c2c(NC(=O)c3cnc(N)s3)cnn21 [Co. No. 74, 2-Amino-N-[(7S)-7-methyl-4-oxo-5-[4-(trifluoromethyl)phenyl]-6,7-dihydropyrazolo[1,5-a]pyrazin-3-yl]thiazole-5-carboxamide]
107	8.51e-08	240.1	–	C[C@H]1CN(c2ccc(C(F)(F)F)cc2)C(=O)c2c(NC(=O)c3cn[nH]c3)cnn21 [Co. No. 79]
111	1e-07	275.03	–	C[C@H]1CN(c2ccc(C(F)(F)F)cc2)C(=O)c2c(NC(=O)c3ncc[nH]3)cnn21 [Co. No. 80]
103	1.02e-07	189.92	–	Cc1nc(C(=O)Nc2cnn3c2C(=O)N(c2ccc(C(F)(F)F)cc2)C[C@@H]3C)co1 [Co. No. 81]
101	1.12e-07	277.42	–	C[C@H]1CN(c2ccc(C(F)(F)F)cc2)C(=O)c2c(NC(=O)c3c[nH]cn3)cnn21 [Co. No. 83]
103	1.91e-07	167.59	–	C[C@H]1CN(c2ccc(C(F)(F)F)cc2)C(=O)c2c(NC(=O)c3cnn(C)c3)cnn21 [Co. No. 86]
99	2.24e-07	231.1	–	Cc1ncc(C(=O)Nc2cnn3c2C(=O)N(c2ccc(C(F)(F)F)cc2)C[C@@H]3C)cn1 [Co. No. 88]
100	2.45e-07	285.92	–	Cc1cc(C(=O)Nc2cnn3c2C(=O)N(c2ccc(C(F)(F)F)cc2)C[C@@H]3C)[nH]n1 [Co. No. 89]
101	3.47e-07	162.27	–	C[C@H]1CN(c2ccc(C(F)(F)F)cc2)C(=O)c2c(NC(=O)c3cncn3C)cnn21 [Co. No. 91]
98	4.57e-07	272.72	–	C[C@H]1CN(c2ccc(C(F)(F)F)cc2)C(=O)c2c(NC(=O)c3c[nH]c(N)n3)cnn21 [Co. No. 94, 2-Amino-N-[(7S)-7-methyl-4-oxo-5-[4-(trifluoromethyl)phenyl]-6,7-dihydropyrazolo[1,5-a]pyrazin-3-yl]-1H-imidazole-4-carboxamide]
101	6.31e-07	142.82	–	CC(=O)Nc1cnn2c1C(=O)N(c1ccc(C(F)(F)F)cc1)C[C@@H]2C [Co. No. 160, N-[(7S)-7-methyl-4-oxo-5-[4-(trifluoromethyl)phenyl]-6,7-dihydropyrazolo[1,5-a]pyrazin-3-yl]acetamide]
107	2.75e-09	196.39	–	Cc1cc(C(=O)Nc2cnn3c2C(=O)N(c2ccc(C(F)(F)F)cc2)C[C@@H]3C)cc(N)n1 [Co. No. 162]
